pIC50: −log10 of the molar value. Where two headings read alike, the source gives them in different places. Values belong to the molecule of their own block, whether it stands above or below them.
Legend:
[1] = molecular target: T1, MCR-1 (Homo sapiens, UniProt Q01726); experiment: Melanocortin receptor binding assay, competition with 125I-HP 467, HEK 293 cells expressing hMCR-1; conditions: for pIC50: read-out: MC-1 IC50; for % Disp. MC-1 10 μM: displacement of 125I-HP 467 at 10 μM isoquinoline compound
T1 construct: expressed in transfected cells; host or cells: HEK 293
Procedure, shortened: (§1)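 Intact-cell competition binding, 2.5 hr at 37 °C, in PBS/10% calf serum/1 mM CaCl2; hMCR-4 cells at 4×10^3 per tube, hMCR-1 cells at 2×10^4 per tube. Filtration on BSA/CaCl2-soaked GF/B, cold 50 mM Tris pH 7.4 washes, scintillation count.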

[2] = molecular target: T2, MCR-4 (Homo sapiens, UniProt P32245); experiment: Melanocortin receptor binding assay, competition with 125I-HP 467, HEK 293 cells expressing hMCR-4; conditions: for pIC50: read-out: MC-4 IC50
T2 construct: expressed in transfected cells; host or cells: HEK 293
Procedure, shortened: as §1

[3] = inhibition of binding of 125I-HP 467, HEK 293 cells expressing MCR-1
[4] = inhibition of binding of 125I-HP 467, HEK 293 cells expressing MCR-4
[5] = TRG 2414 library, inhibition of binding of 125I-HP 467, HEK 293 cells expressing MCR-1
[6] = TRG 2414 library, inhibition of binding of 125I-HP 467, HEK 293 cells expressing MCR-4
[7] = inhibition of binding of 125I-HP 467, HEK 293 cells expressing MCR-1, TRG 2414 library
[8] = inhibition of binding of 125I-HP 467, HEK 293 cells expressing MCR-4, TRG 2414 library
[9] = TRG 2406 and TRG 2407 libraries, inhibition of binding of 125I-HP 467

T2 sequence (P32245 whole entry): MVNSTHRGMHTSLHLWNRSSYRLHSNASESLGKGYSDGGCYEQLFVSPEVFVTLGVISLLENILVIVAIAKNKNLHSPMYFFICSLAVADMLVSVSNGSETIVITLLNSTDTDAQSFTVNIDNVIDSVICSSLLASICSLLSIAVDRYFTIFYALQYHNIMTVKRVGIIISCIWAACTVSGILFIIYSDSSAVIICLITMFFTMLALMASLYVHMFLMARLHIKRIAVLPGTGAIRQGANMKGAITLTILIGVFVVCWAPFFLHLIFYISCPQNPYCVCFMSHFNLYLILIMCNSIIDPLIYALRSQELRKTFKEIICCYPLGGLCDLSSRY
T1 sequence (Q01726 whole entry): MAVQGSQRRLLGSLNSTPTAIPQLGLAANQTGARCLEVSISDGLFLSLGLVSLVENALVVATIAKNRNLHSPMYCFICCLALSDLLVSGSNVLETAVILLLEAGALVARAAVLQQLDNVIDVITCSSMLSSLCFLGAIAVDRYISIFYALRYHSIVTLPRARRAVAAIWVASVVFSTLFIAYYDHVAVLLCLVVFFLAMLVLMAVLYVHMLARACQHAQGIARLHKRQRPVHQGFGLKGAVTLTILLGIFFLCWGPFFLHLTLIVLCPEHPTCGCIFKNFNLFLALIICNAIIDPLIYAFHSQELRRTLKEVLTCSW

pIC50 [1, 7]: 6.33 | pIC50 [2, 8]: 5.17
SMILES: CCCOc1ccc(C2C(CNCc3ccc(OC)cc3)c3ccccc3CN2CCCCC(N)CN)cc1 (stereo not drawn) [TRG 2414-181]

pIC50 [1, 7]: 5.69 | pIC50 [2, 8]: 5.38
SMILES: COc1ccc(CNCC2c3ccccc3CN(CCCCC(N)CN)C2c2ccc(Oc3ccccc3)cc2)cc1 (stereo not drawn) [TRG 2414-141]

pIC50 [1, 9]: 6.51 | pIC50 [2, 9]: 5.44
SMILES: CNC(CN)CCCCN1Cc2ccccc2C(CNC(C)C)C1c1ccc(-c2ccccc2)cc1 (stereo not drawn) [TRG 2407-28]

pIC50 [1, 7]: 4.25 | pIC50 [2, 8]: 4.38
SMILES: NCC(CCCCN1Cc2ccccc2C(CNCc2ccccc2C(F)(F)F)C1c1cc(C(F)(F)F)cc(C(F)(F)F)c1)NCc1ccccc1 (stereo not drawn) [TRG 2414-43]

pIC50 [1, 9]: 5.95 | pIC50 [2, 9]: 5.99
SMILES: CNC(CN)CCCCN1Cc2ccccc2C(CNCC2CCCCC2)C1c1ccc(Cl)cc1Cl (mixture of isomers) [TRG 2407-31]

pIC50 [1, 9]: 5.05 | pIC50 [2, 9]: 4.83
SMILES: CNC(CN)CCCCN1Cc2ccccc2C(CNc2cccc(Cl)c2)C1c1ccc(Cl)cc1Cl (stereo not drawn) [TRG 2407-5]

pIC50 ([1]; competition with 125I-HP 467, HEK 293 cells expressing MCR-1): 7.05 | pIC50 ([2]; competition with 125I-HP 467, HEK 293 cells expressing MCR-4): 5.21
SMILES: CNCCNC(CN)CCCCN1Cc2ccccc2C(CN)C1c1ccc(-c2ccccc2)cc1 (stereo not drawn) [TRG 2411-26]
effectiveness as MC receptor ligand ([1]; binding to MC receptors, Table 1): particularly effective MC receptor ligands

pIC50 [1, 7]: 5.41 | pIC50 [2, 8]: 5.15
SMILES: NCC(CCCCN1Cc2ccccc2C(CNCc2ccccc2)C1c1ccc(Cl)cc1Cl)NCc1ccccc1 (stereo not drawn) [TRG 2414-31]

pIC50 [1, 7]: 4.50 | MC-4 IC50 [2, 8]: no fit
SMILES: NCC(CCCCN1Cc2ccccc2C(CNCc2ccccc2C(F)(F)F)C1c1cccc(Oc2ccccc2)c1)NCc1ccccc1 (stereo not drawn) [TRG 2414-83]

pIC50 [1, 3]: 7.05 | pIC50 [2, 4]: 5.83
SMILES: CCCCCNc1ccc(C2C(CNCCc3ccccc3)c3ccccc3CN2CCCC(CN)NC)cc1 (stereo not drawn) [TRG 2412-16]

pIC50 [1, 3]: 7.05 | pIC50 [2, 4]: 5.75
SMILES: CCNc1ccc(C2C(CNCCc3ccccc3)c3ccccc3CN2CCCC(CN)NC)cc1 (stereo not drawn) [TRG 2411-151]

pIC50 [1, 9]: 5.92 | pIC50 [2, 9]: 6.11
SMILES: CCOc1ccccc1CNCC1c2ccccc2CN(CCCCC(CN)NC)C1c1ccc(Cl)cc1Cl (stereo not drawn) [TRG 2407-15]

pIC50 [1, 7]: 5.58 | pIC50 [2, 8]: 5.59
SMILES: COc1ccc(CCNCC2c3ccccc3CN(CCCCC(CN)NCc3ccccc3)C2c2ccc(Cl)cc2Cl)cc1 (stereo not drawn) [TRG 2414-27]

pIC50 [1, 3]: 5.52 | pIC50 [2, 4]: 5.71
SMILES: NCC(CCCN1Cc2ccccc2C(CN)C1c1ccc(O)cc1)NCCC1CCCCC1 (stereo not drawn) [TRG 2415-9]

The remaining lines, values behind:

SMILES: COc1ccc(CNC(CN)CCCCN2Cc3ccccc3C(CNCCc3ccccc3)C2c2cc(C(F)(F)F)cc(C(F)(F)F)c2)cc1 (stereo not drawn) [TRG 2421-4]
pIC50 [1, 3]: 5.59 | pIC50 [2, 4]: 5.55

SMILES: NCC(CCCCN1Cc2ccccc2C(CNCc2ccccc2)C1c1ccccc1Br)NCc1ccccc1 (stereo not drawn) [Cmpd 231]
pIC50 [1, 5]: 4.96 | pIC50 [2, 6]: 5.04

SMILES: COc1cccc(CCNCC2c3ccccc3CN(CCCCC(CN)NCc3ccc(Br)cc3)C2c2cc(C(F)(F)F)cc(C(F)(F)F)c2)c1 (stereo not drawn) [TRG 2421-38]
pIC50 [1, 3]: 5.13 | pIC50 [2, 4]: 5.87

SMILES: COc1ccc(CNC(CN)CCCCN2Cc3ccccc3C(CNCCc3ccccc3)C2c2cccc(C(F)(F)F)c2)cc1 (stereo not drawn) [TRG 2421-42]
pIC50 [1, 3]: 5.67 | pIC50 [2, 4]: 5.76

SMILES: CCNc1ccc(C2C(CNCCc3ccccc3)c3ccccc3CN2CCCC(CN)NCCCCCN(CC)CC)cc1 (stereo not drawn) [TRG 2420-3]
pIC50 [1, 3]: 7.52 | pIC50 [2, 4]: 5.08

SMILES: COc1ccccc1CCNCC1c2ccccc2CN(CCCCC(N)CN)C1c1ccccc1Br (stereo not drawn) [Cmpd 209]
pIC50 [1, 5]: 5.77 | pIC50 [2, 6]: 5.86

SMILES: NCC(CCCCN1Cc2ccccc2C(CNCCc2ccccc2)C1c1cccc(C(F)(F)F)c1)NCc1ccccc1 (stereo not drawn) [TRG 2421-41]
pIC50 [1, 3]: 5.60 | pIC50 [2, 4]: 5.76

SMILES: CCNc1ccc(C2C(CNCCc3ccccc3)c3ccccc3CN2CCCC(CN)NCCOCCNC(C)C)cc1 (stereo not drawn) [TRG 2420-9]
pIC50 [1, 3]: 7.40 | pIC50 [2, 4]: 5.49

SMILES: CCCOc1ccc(C2C(CNCCc3ccc(OC)cc3)c3ccccc3CN2CCCCC(CN)NCC(C)c2ccc(CC(C)C)cc2)cc1 (stereo not drawn) [Cmpd 188]
pIC50 [1, 5]: 5.10 | pIC50 [2, 6]: 4.70

SMILES: NCCN1Cc2ccccc2C(CNC2CCCCC2)C1c1ccc([N+](=O)[O-])o1 (stereo not drawn) [TRG 2405-80]
pIC50 ([1]; TRG 2405 section, inhibition of binding of 125I-HP 467, HEK 293 cells expressing MCR-1): 5.06 | % Disp. MC-1 10 μM ([1]; first of duplicate): 30.8% | % Disp. MC-1 10 μM ([1]; second of duplicate): 52.9% | pIC50 ([2]; TRG 2405 section, inhibition of binding of 125I-HP 467, HEK 293 cells expressing MCR-4): 4.68

Reference: patent publication US6608082B1, “Treatment of erectile dysfunction using isoquinoline compound melanocortin receptor ligands” (Lion Bioscience AG, priority 1998, dated 2003)
